Patent US20030087844A1, “Ribavirin syrup formulations” (SCHERING CORPORATION, priority 2001, published 2003)

Test: Storage stability testing of the syrup at ICH conditions, HPLC assay of ribavirin and degradation products
Assay type: physicochemical
Source text: The stability of a syrup formulation of the present invention was compared to conventional liquid formulations that contain ribavirin that are marketed by ICN. Degradation of syrup formulations containing ribavirin is observed during storage stability testing, as is evidenced by declining concentrations of the active ingredient and a concomitant formation of degradates. The most frequent degradation product that has been identified is the carboxylic acid product of ribavirin. Based upon these tests, it is believed that the syrup formulations of the present invention have a shelf life of greater than two years.
This analysis was performed via HPLC methods that are known to one of skill in the art. Stability data was also performed on the formulation of the present invention at 18 months after formulation, and measured by HPLC techniques as known by one of skill in the art as set forth in Table 2 below.
Only results that exceed the limit of quantitation (LOQ) were included in the attached tables. The LOQ of each degradation product is 0.05%. Synthesis-related impurities of ribavirin, the α-anomer and 5′-acetylribavirin, were not degradation products and are not monitored in the drug product. Each degradation product result was rounded to one significant figure according to the rounding convention described in the USP. The results for total degradation products that were derived from the sum of individual degradation products that contain one more significant figure than those shown in the data tables and then rounded to one decimal place.

Measured: ribavirin degradation after storage

NC(=O)c1ncn([C@@H]2O[C@H](CO)[C@@H](O)[C@H]2O)n1 [Ribavirin, 1β-D ribofuranosyl-1H-1,2,4 triazole 3-carboxamide]
did not degrade significantly: 25° C./60% RH, up to 12 months | 30° C./60% RH, up to 12 months | ICH accelerated condition 40° C./75% RH, up to 6 months
